Experimental findings from patent US4581354A, “3-arylcarbonyl- and 3-cycloalkylcarbonyl-1-aminoalkyl-1H-indoles, compositions and use” (Sterling Drug Inc., priority 1985, dated 1986) are described below.

Like-named read-outs stand apart in the source and are kept apart here.

This assay relates to acetylcholine-induced abdominal constriction. The assay is described as follows: animal or person. It counts as in vivo, mice. The settings on record: for ED50: read-out: Ach ED50; for inhibition in vivo at 300 mg/kg: 300 mg./kg. oral; for inhibition in vivo at 3 mg/kg: 3 mg./kg. i.v.; for inhibition in vivo at 10 mg/kg: 10 mg./kg. i.v.; for inhibition in vivo at 550 mg/kg: 550 mg./kg. oral; for inhibition in vivo at 150 mg/kg: 150 mg./kg. oral; for Ach ED50: oral. The text has this: The test procedures used to determine the analgesic activities of the compounds have been described in detail in the prior art and are as follows: The acetylcholine-induced abdominal constriction test, which is a primary analgesic screening test designed to measure the ability of a test agent to suppress acetylcholine-induced abdominal constriction in mice, described by Collier et al., Brit. J. Pharmacol. Chemotherap. 32, 295 (1968); a modification of the anti-bradykinin test, which is also a primary analgesic screening procedure, described by Berkowitz et al., J. Pharmacol. Exptl. Therap. 177, 500-508 (1971), Blane et al., J. Pharm. Pharmacol. 19, 367-373 (1967), Botha et al., Eur. J. Pharmacol. 6, 312-321 (1969) and Deffenu et al., J. Pharm. Pharmacol. 18, 135 (1966); and the rat paw flexion test, described by Kuzuna et al., Chem. Pharm. Bull., 23, 1184-1191 (1975), Winter et al., J. Pharm. Exptl. Therap., 211, 678-685 (1979) and Capetola et al., J. Pharm. Exptl. Therap. 214, 16-23 (1980).
Unless noted otherwise, all data were obtained on oral administration and are expressed either as the ED50 or as the percent inhibition at a given dose level (thus 30/100 or 30% inhibition at […].)
In some instances, the compounds were retested two or more times, and ED50 values were calculated for each series of repeat tests. In such instances, each of the ED50 values so-obtained is given in a series of values, thus 6, 28, 30, 43 in the case of the species of Example 1AW in the acetylcholine-induced abdominal constriction test.

[1] abbreviates: Mus musculus, po, 100 mg./kg. oral, read-out: Ach percent inhibition.
Setting [2] is: Mus musculus, po, read-out: Ach percent inhibition.
Setting [3] is: Mus musculus, iv, read-out: Ach percent inhibition.
The mark [4] stands for this setting: Mus musculus, iv, 30 mg./kg. i.v., read-out: Ach percent inhibition.
Setting [5] is: Mus musculus, sc, 30 mg./kg. s.c., read-out: Ach percent inhibition.
The mark [6] stands for this setting: Mus musculus, po, 30 mg./kg. oral, read-out: Ach percent inhibition.

The ED50 is the midpoint of the dose-response relation.

For the setting “100 mg./kg. oral”, “5-bromo-2-methyl-3-(4-methylbenzoyl)-1-[2-(4-morpholinyl)ethyl]-1H-indole [Example 33]” registered an Ach percent inhibition of 20%.
Regarding `COc1ccc(C(=O)c2c(C)n(CCN3CCOCC3)c3cc(Cl)ccc23)cc1` [Example 1-O], the median effective dose (ED50) (Mus musculus, po) came to 91.6 mg/kg.
Turning to `Cc1c(C(=O)c2ccc(C#N)cc2)c2ccccc2n1CCCN1CCOCC1` [Example 1AA], the inhibition in vivo at 100 mg/kg under setting [1] was 10%.
Consider `Cc1cccc2c1c(C(=O)c1ccccc1)c(C)n2CCN1CCOCC1` [Example 1AB], for which the inhibition in vivo at 300 mg/kg under setting [2] is 47%.
For `Cc1c(C(=O)c2ccc(C#N)cc2)c2ccccc2n1CCN1CCOCC1` [Example 1AF, 2-methyl-3-(4-cyanobenzoyl)-1-[2-(4-morpholinyl)ethyl]-1H-indole], under setting [3], the inhibition in vivo at 3 mg/kg turned out to be 0% and the inhibition in vivo at 10 mg/kg is 0%. Besides, the inhibition in vivo at 30 mg/kg under setting [4] is 30%. The median effective dose (ED50) (Mus musculus, po) came to 200 mg/kg.
For the compound `Cc1c(C(=O)c2ccc(OCc3ccccc3)cc2)c2ccccc2n1CCN1CCOCC1` [Example 1AG, 2-methyl-3-(4-benzyloxybenzoyl)-1-[2-(4-morpholinyl)ethyl]-1H-indole], the inhibition in vivo at 10 mg/kg under setting [3] was found to be 10%. Besides, the inhibition in vivo at 30 mg/kg was 56% under setting [4] and 20% under setting [5]. Moreover, the inhibition in vivo at 100 mg/kg under setting [1] was 40%. The inhibition in vivo at 300 mg/kg under setting [2] is 47%.
As for `COc1cccc(C(=O)c2c(C)n(CCN3CCOCC3)c3ccccc23)c1` [Example 1AH], the ED50 (Mus musculus, po) is 85 mg/kg.
On to `COc1ccc(C(=O)c2c(C)n(CCN3CCOCC3)c3ccccc23)cc1OC` [Example 1AI], for which, for the setting “Mus musculus, po”, the ED50 was found to be 74 mg/kg.
Turning to `COc1ccc(C(=O)c2c(-c3ccccc3)n(CCN3CCOCC3)c3ccccc23)cc1` [Example 1AJ], the inhibition in vivo at 100 mg/kg under setting [1] came to 13%. Besides, the inhibition in vivo at 300 mg/kg under setting [2] stood at 53%.
In the case of `COc1ccc2c(c1)c(C(=O)c1ccccc1)cn2CCN1CCOCC1` [Example 1AK], under setting [2], the inhibition in vivo at 300 mg/kg worked out at 40% and the inhibition in vivo at 550 mg/kg was found to be 47%.
Take `COc1ccc2c(c1)c(C(=O)c1ccccc1)c(C)n2CCN1CCOCC1` [Example 1AL]: the ED50 (Mus musculus, po) came to 113 mg/kg.
On to `COc1ccc(C(=O)c2c(C)n(CCN3CCOCC3)c3cc(OC)ccc23)cc1` [Example 1AM], for which the 50% effective dose (ED50) was found to be 5 mg/kg (Mus musculus, iv) and 32 mg/kg (Mus musculus, po).
Consider `O=C(c1ccc(Cl)cc1)c1cn(CCN2CCOCC2)c2ccccc12` [Example 1AR], for which, under setting [2], the inhibition in vivo at 150 mg/kg came out at 27% and the inhibition in vivo at 300 mg/kg was 27%. Moreover, the inhibition in vivo at 25 mg/kg (Mus musculus, sc, 25 mg./kg. s.c., read-out: Ach percent inhibition) was 13%.
In the case of `Cc1c(C(=O)c2ccc(Cl)c(Cl)c2)c2ccccc2n1CCN1CCOCC1` [Example 1AS], the inhibition in vivo at 300 mg/kg under setting [2] worked out at 33%.
Take `CC(Cn1cc(C(=O)c2ccccc2)c2ccccc21)N1CCOCC1` (stereo not shown) [Example 1AZ]: for the setting “Mus musculus, po, 75 mg./kg. oral, read-out: Ach percent inhibition”, the inhibition in vivo at 75 mg/kg came to 20%. The inhibition in vivo at 100 mg/kg under setting [1] stood at 73%. For the same compound, the inhibition in vivo at 150 mg/kg under setting [2] is 53%.
`Cc1cccc2c(C(=O)c3ccccc3)cn(CCN3CCOCC3)c12` [Example 1BA]: where the note is “Mus musculus, po”, the ED50 was determined as 197 mg/kg.
`Cc1c(C(=O)c2cccc3ccccc23)c2ccccc2n1CCN1CCOCC1` [Example 1BB]: the ED50 (Mus musculus, po) came to 97 mg/kg.
Take `Cc1c(C(=O)c2ccc(C#N)cc2)c2ccccc2n1CCN1CCCC1` [Example 1BC]: under setting [1], the inhibition in vivo at 100 mg/kg came out at 40%.
For the compound `CCN(CC)CCn1c(C)c(C(=O)c2ccc(OC)cc2)c2ccccc21` [Example 1BD], the ED50 (Mus musculus, po) was determined as 65 mg/kg.
On to `CCN(CC)CCn1c(C)c(C(=O)c2ccc(OC)cc2)c2ccccc21` [Example 1BE], for which the “Ach ED50” value was 50.9 mg/kg.
As to `COc1ccc(C(=O)c2c(C)n(CCN3CCOCC3)c3ccccc23)cc1` [Example 1BF], the inhibition in vivo at 30 mg/kg under setting [6] was 0%.
Consider `CCCOc1ccc(C(=O)c2c(C)n(CCN3CCOCC3)c3ccccc23)cc1` [Example 1BG], for which the inhibition in vivo at 300 mg/kg under setting [2] worked out at 33%.
For the compound `CCOc1ccc(C(=O)c2c(C)n(CCN3CCOCC3)c3ccccc23)cc1` [Example 1BH], the inhibition in vivo at 10 mg/kg under setting [3] came out at 50%. For the same compound, the inhibition in vivo at 30 mg/kg under setting [6] was 0%. The inhibition in vivo at 100 mg/kg under setting [1] is 27%. Under setting [2], the inhibition in vivo at 300 mg/kg worked out at 53% and the inhibition in vivo at 550 mg/kg was determined as 58%. In addition, the inhibition in vivo at 30 mg/kg under setting [5] was 7%.
In the case of `COc1ccc2cc(C(=O)c3c(C)n(CCN4CCOCC4)c4ccccc34)ccc2c1` [Example 1BJ], the inhibition in vivo at 100 mg/kg under setting [1] was 0%.
Still for that read-out and setting: under `Cc1c(C(=O)c2ccc(C#N)cc2)c2cc(F)ccc2n1CCCN1CCOCC1` [Example 1BL] stands 0%.
As to `COc1ccc(C(=O)c2cn(CCCN3CCOCC3)c3ccc(F)cc23)cc1` [Example 1BM], the inhibition in vivo at 100 mg/kg under setting [1] came to 0%.
Turning to `COc1ccc(C(=O)c2c(C)n(CCCN3CCCCC3)c3ccc(F)cc23)cc1` [Example 1BN], where the note is “Mus musculus, po”, the median effective dose (ED50) is 36 mg/kg.
Turning to `Cc1c(C(=O)c2ccccc2)c2cc(F)ccc2n1CCCN1CCOCC1` [Example 1BO], the ED50 (Mus musculus, po) was 173 mg/kg.
Still for that read-out and setting: the value for `CCN(CC)CCCn1c(C)c(C(=O)c2ccc(OC)cc2)c2cc(F)ccc21` [Example 1BP] was 28 mg/kg.
As to `COc1ccc(C(=O)c2c(C)n(CCCN3CCOCC3)c3c(F)cc(F)cc23)cc1` [Example 1BR], the ED50 (Mus musculus, po) stood at 123 mg/kg.
For `COc1ccc(C(=O)c2c(C)n(C(C)CCN3CCOCC3)c3ccc(F)cc23)cc1` (stereo not shown) [Example 1BT], under setting [1], the inhibition in vivo at 100 mg/kg is 90%.
The same measure, in the same setting: under `Cc1c(C(=O)c2ccccc2F)c2cc(F)ccc2n1C(C)CCN1CCOCC1` (stereo not shown) [Example 1BW] stands 10%.
As to `Cc1c(C(=O)c2ccc(-c3ccccc3)cc2)c2ccccc2n1CCN1CCOCC1` [Example 1BZ], the inhibition in vivo at 100 mg/kg under setting [1] turned out to be 0%.
The same measure, in the same setting: the value for `Cc1c(C(=O)c2cccc3c2OCO3)c2ccccc2n1CCN1CCOCC1` [Example 1CA] was 20%; that for `Cc1c(C(=O)c2ccccc2-c2ccccc2)c2ccccc2n1CCN1CCOCC1` [Example 1CB] was 60%.
For `Cc1c(C(=O)c2ccc(C#N)cc2)c2cc(F)ccc2n1CCN1CCOCC1` [Example 1CC], the inhibition in vivo at 100 mg/kg under setting [1] turned out to be 10%.
Consider `Cc1c(C(=O)c2ccccc2F)c2ccccc2n1C(C)CCN1CCOCC1` (stereo not shown) [Example 1CD], for which, under “Mus musculus, po”, the ED50 came to 79 mg/kg.
Take `CCN(CC)CCn1c(C)c(C(=O)c2ccc3ccccc3c2)c2ccccc21` [Example 1CE]: the inhibition in vivo at 100 mg/kg under setting [1] was 0%.
For the compound `COc1ccc(C(=O)c2c(C)n(CCCN3CCCC3)c3ccccc23)cc1` [Example 1CF], the ED50 (Mus musculus, po) came to 24 mg/kg.
For `COc1ccc(C(=O)c2c(C)n(CCCN3CCCC3)c3ccccc23)cc1` [Example 1CG], the “Ach ED50” value amounted to 46.3 mg/kg.
Regarding `CN(C)CCn1cc(C(=O)c2ccccc2)c2ccccc21` [Example 1CH], for the setting “Mus musculus, po”, the ED50 was 105 mg/kg.
As to `COc1ccc(C(=O)c2c(C)n(CCCCCN3CCOCC3)c3ccc(F)cc23)cc1` [Example 1CI], under setting [1], the inhibition in vivo at 100 mg/kg was determined as 70%.
As for `COc1ccc(C(=O)c2c(C)n(CCCCN3CCOCC3)c3ccc(F)cc23)cc1` [Example 1CJ], the ED50 (Mus musculus, po) came to 56 mg/kg.
Consider `Cc1c(C(=O)c2cccc(F)c2F)c2ccccc2n1CCN1CCOCC1` [Example 1CK], for which the inhibition in vivo at 100 mg/kg under setting [1] amounted to 30%.
Still for that read-out and setting: the value for `Cc1cccc(C)c1C(=O)c1c(C)n(CCN2CCOCC2)c2ccccc12` [Example 1CL] was 30%.
Consider `Cc1c(C(=O)c2ccco2)c2ccccc2n1CCN1CCOCC1` [Example 1C], for which, for the setting “Mus musculus, po”, the ED50 was determined as 126 mg/kg.
`COc1ccc(C(=O)c2c(C)n(CCN3CCOCC3)c3c(C)cccc23)cc1` [Example 1E]: the inhibition in vivo at 100 mg/kg under setting [1] came out at 0%.
Take `COc1ccc(C(=O)c2c(C)n(CCN3CCOCC3)c3ccc(F)cc23)cc1` [Example 1G]: under setting [3], the inhibition in vivo at 3 mg/kg came to 0% and the inhibition in vivo at 10 mg/kg came to 50%. In addition, the inhibition in vivo at 30 mg/kg under setting [4] worked out at 100%. For the same compound, the 50% effective dose (ED50) (Mus musculus, po) was 84 mg/kg.
Regarding `COc1ccc(C(=O)c2c(C)n(CCN3CCOCC3)c3ccccc23)cc1` [Example 1H], the inhibition in vivo at 3 mg/kg under setting [3] came out at 0%. For the same compound, the inhibition in vivo at 10 mg/kg under setting [3] stood at 30%. The inhibition in vivo at 30 mg/kg stood at 100% under setting [4] and 2% under setting [5]. The inhibition in vivo at 100 mg/kg under setting [1] turned out to be 33%. Further, under setting [2], the inhibition in vivo at 300 mg/kg stood at 71%.
